Columns and labels:
mice [1] = assay: Magnesium sulfate-evoked writhing test; format: in vivo, mouse; conditions: for average ED50, magnesium sulfate-evoked writhing / number of writhing episodes evoked by magnesium sulfate: subcutaneous, Swiss mice; for average ED50, magnesium sulfate-evoked writhing: n=8; for number of writhing episodes evoked by magnesium sulfate: GW7647 1-30, Wy-14643 4-80, PEA 1-20 mg-kg^−1
Description: Mice received a single dose of magnesium sulfate (120 mg/kg, dissolved in 0.5 ml saline, i.p.) and subsequent writhing episodes were monitored for a period of 30 min thereafter. Drugs were administered in saline/Tween 80/polyethylenglycol, (90/5/5) subcutaneously, 30 minutes before magnesium sulfate.
Next, the effect of PPARα agonists on the nocifensive behavior elicited by intraperitoneal injection of magnesium sulfate in mice, a model of visceral pain (Calignano, et al, Eur J Pharmacol 419, 191-8. (2001)), was explored.
Writhing test. Magnesium sulfate was injected (120 mg-kg^−1 in 0.5 ml saline, i.p.) in 12-h food-deprived mice and measured writhing episodes for 30 min (Calignano, et al, Eur J Pharmacol 419, 191-8. (2001)). Drugs or vehicle were administered by subcutaneous injection 30 min before magnesium sulfate.

Swiss mice = assay: Complete Freund's adjuvant-induced arthritis, hyperalgesia; format: in vivo, mouse; conditions: 30 mg-kg^−1 s.c., 60 min before test, day 7 and 14 after CFA
Description: Mechanical hyperalgesia was determined by measuring paw withdrawal thresholds to an increasing pressure onto the dorsal surface of the paw using an analgesimeter (Ugo Basile, Italy) with a cut-off of 250 g. Withdrawal thresholds were measured on both the ipsilateral paw (inflamed or ligated) and contralateral paw (uninflamed or unligated) 60 min after subcutaneous drug administration.
Thermal hyperalgesia was assessed by the methods of Hargreaves (Hargreaves et al., Pain, 32, 77 (1988)) by measuring the latency to withdraw the hind paws from a focussed beam of radiant heat applied to the plantar surface, using an appropriate apparatus (Ugo Basile, Italy). The cut-off time was set at 30 sec. The mice were habituated to the apparatus for 10-15 min two days prior to the experiment.

mice [2] = assay: Formalin-evoked pain behavior (hind paw licking); format: in vivo, mouse; conditions: for early and late phase formalin-evoked nociception, combination with anandamide: 0.1 μg/paw of each; for anti-inflammatory effect (paw weight) after formalin: 50 μg/paw, 45 minutes after intraplantar formalin, C57BL/6J mice
Description: Administration of formalin into the mouse hind paw evokes a pain behavior consisting of two temporally distinct phases of licking and flexing of the injected limb (Dubuisson, et al., Pain 4, 161-74 (1977)). The first phase, which starts immediately after formalin injection and lasts 5-10 min, is due to activation of nociceptive fibers and is accompanied by the local release of nitric oxide and adenosine [Dickenson, et al., Neurosci Lett 83, 207-11 (1987); Omote, et al., Brain Res 787, 161-4 (1998); Omote et al., 2000; Liu, et al., J Neurochem 80, 562-70 (2002)]. Following a quiescent interval of 10-15 minutes, a second phase of nociceptive behavior appears, which is associated with local inflammation [Rosland, et al., Pain 42, 235-42 (1990)] and central sensitization [Coderre, et al., J Neurosci 12, 3665-70 (1992)]. […] (2001); Farquuar-Smith, 2002]. […] The effects of PEA in C57BL/6J mice in which the PPARα gene had been deleted by homologous recombination (PPARα^−/−)[Lee, et al., Mol Cell Biol 15, 3012-22 (1995)] were examined to determine whether PPARα contributes to these properties.
Although PPARα is known to regulate the inflammatory response [Devchand, et al., Nature 384, 39-43. (1996); Cabrero, et al., Curr Drug Targets Inflamm Allergy 1, 243-8 (2002); Berger, et al., Annu Rev Med 53, 409-35 (2002); Chinetti, et al., Inflamm Res 49, 497-505 (2000)], its roles in the modulation of acute nociceptive pain remain unexplored. A series of structurally diverse PPAR-α agonists were tested for their ability to reduce pain behavior in an animal model of chemical tissue damage. Injection of formalin into the mouse hind paw evokes a nocifensive behavior consisting of two distinct phases. The first phase results from direct activation of nociceptive fibers and starts immediately after formalin administration, while the second phase develops over a period of approximately 60 min and is associated with local inflammation and central sensitization.
Mice received intraplantar injections of formalin (5% vol/vol, 10 μl) in saline containing polyethylene glycol (5%) and Tween 80 (5%). The duration of paw licking was monitored by an observer for periods of 0-15 min (early or first phase) and 15-45 min (late or second phase) immediately after formalin administration.
Formalin test. Formalin (5%, 10 μl)-induced paw licking was monitored for 0-15 min (first phase) and 15-45 min (second phase) as described (Calignano, et al., Nature 394, 277-81 (1998).

human CB2 = target: T1, human CB2 (Homo sapiens, UniProt P34972); assay: CB2 receptor binding, [3H]-WIN-55212-2 displacement in CB2-overexpressing CHO cell membranes
T1 construct: purchased Perkin-Elmer, Boston, Mass; host or cells: CHO cells (membranes)
T1 sequence (P34972 whole entry): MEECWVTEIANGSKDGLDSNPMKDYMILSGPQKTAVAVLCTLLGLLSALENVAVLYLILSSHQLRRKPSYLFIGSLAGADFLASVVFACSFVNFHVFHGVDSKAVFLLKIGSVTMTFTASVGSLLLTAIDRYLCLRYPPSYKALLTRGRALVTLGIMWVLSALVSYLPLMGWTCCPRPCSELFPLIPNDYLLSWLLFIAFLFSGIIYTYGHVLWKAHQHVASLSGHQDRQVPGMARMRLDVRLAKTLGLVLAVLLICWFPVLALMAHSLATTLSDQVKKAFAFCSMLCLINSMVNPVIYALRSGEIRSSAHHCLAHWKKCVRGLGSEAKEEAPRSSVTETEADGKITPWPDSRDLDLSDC

[3] = Tissue PEA levels after subcutaneous PEA (LC/MS); format: in vivo, mouse; conditions: daily PEA injections s.c.
Description: LC/MS analysis. PEA was measured by high-performance liquid chromatography/tandem mass spectrometry. Tissue samples were weighed, cut into 1 mm^2 pieces, and incubated with 1 mL of acetonitrile at 4° C. overnight. Samples of the incubates (100 μl) were transferred to 96-well plates, diluted with 250 μL of acetonitrile containing [H2]-ethanolamine-OEA as an internal standard, and injected into the HPLC. HPLC analyses were carried out on a Waters 2790 Alliance system (Milford, Mass.) using a Phenomenex Synergi Polar-RP column (2 mm×150 mm, 4μ; Torrance, Calif.) and a mobile phase of 0.1% formic acid in water (solvent “A”) and 0.1% formic acid in acetonitrile (solvent “B”). Run conditions were isocratic (25% A and 75% B), at a flow rate of 0.3 mL min^−1, column temperature of 45° C., and a run time of 3 minutes. The HPLC system was interfaced with a Micromass Ultima (Beverly, Mass.) tandem mass spectrometer. The samples were analyzed using an electrospray probe in the positive ionization mode with the cone voltage set at 40 V and capillary at 3.2 kV. The source and desolvation temperature settings were 130° C. and 500° C., respectively. The voltage of the CID chamber was set at −17 eV. Multiple reaction monitoring was used for the detection of PEA as [M+H]^+ (m/z 300>62) and the standard as [M+H]^+ (m/z 330>66).

Compound | average ED50, magnesium sulfate-evoked writhing (mice [1]) | number of writhing episodes evoked by magnesium sulfate (mice [1]) | mechanical and thermal sensitivity in CFA arthritis (Swiss mice) | early and late phase formalin-evoked nociception, combination with anandamide (mice [2]; Swiss mice) | anti-inflammatory effect (paw weight) after formalin (mice [2]) | formalin pain in PPARα−/− mice (mice [2]; 50 μg i.pl.) | first- and second-phase nociception (mice [2]; Swiss mice, i.pl. together with formalin, GW7647 0.1-50 μg, Wy-14643 50-200 μg, fenofibric acid 100-400 μg) | average half-maximal effective dose (ED50) to reduce first-phase pain (mice [2]; intraplantar with formalin, Swiss mice, ten experiments) | [^3H]-WIN-55212-2 Binding (% of control) (human CB2; Concentration 1 μM) | [^3H]-WIN-55212-2 Binding (% of control) (human CB2; Concentration 10 μM) | magnesium sulfate induced writhing in PPARα−/− mice (mice [1]; PPARα−/− mice, 20 mg-kg^−1 s.c.) | brain PEA levels vs vehicle-treated mice [3] | ED50 of antinociceptive effect in the formalin model (mice [2]; i.pl.) | phase I and II formalin pain in wild-type mice (mice [2]; wild-type C57BL6 mice, 50 μg i.pl.)
CC(C)(Sc1ccc(CCN(CCCCC2CCCCC2)C(=O)NC2CCCCC2)cc1)C(=O)O [GW7647] | 7.5 mg/kg | dose-dependently decreased the number of writhing episodes | suppressed | Mimicry of this synergism | absence of anti-inflammatory effects | failed to respond | attenuated first- and second-phase nociception in a dose-dependent manner | 9.9 µg | 102.1 ± 4.0 % of control | 91.6 ± 4.1 % of control |  |  |  | 
CCCCCCCCCCCCCCCC(=O)NCCO [PEA, palmitoylethanolamide] | 9.9 mg/kg | dose-dependently decreased the number of writhing episodes | suppressed | synergistically inhibit | absence of anti-inflammatory effects | absent |  |  | 106.2 ± 2.5 % of control | 98.5 ± 4.2 % of control | did not significantly modify | significantly higher | 7.4 µg | attenuated these responses only in wild-type animals
